Experimental data reported in PubChem BioAssay AID651630 (Sanford-Burnham Center for Chemical Genomics, 2012).
The source made the active and inactive calls.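 Rule for the calls: active = lipid-stain IC50 at or below a set limit, with nuclear-stain toxicity IC50 at least five times higher; inactive = the rest.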

Columns and labels:
DAPI = assay: triacylglycerol accumulation inhibitor potency, dose response, cell-based, panel, Nile Red and DAPI fluorescence, H9c2 (AID 651630); settings: H9c2 cells, DAPI nuclear fluorescence (cytotoxicity counter-readout), oleic acid;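 note: cells exposed to compound overnight before fixation and staining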
TAG = assay: as above; settings: H9c2 cells, Nile Red TAG fluorescence, oleic acid

Row | SMILES | IC50 cytotoxicity (DAPI nuclear signal decrease) (DAPI; mean of runs) | IC50 cytotoxicity (DAPI nuclear signal decrease) (DAPI; run 1) [µM] | IC50 cytotoxicity (DAPI nuclear signal decrease) (DAPI; run 2) [µM] | IC50 (TAG; mean of runs) | IC50 (TAG; run 1) [µM] | IC50 (TAG; run 2) [µM]
1 | C=CCC[C@@H](Cc1ccc(F)cc1)C(=O)OC[C@@H](Cc1c[nH]c2ccccc12)NC(=O)[C@H](CC=C)CC(=O)N(CCO)Cc1ccccc1 | > 25 µM (inactive) | > 25 | > 25 | 6.99 µM | 6.29 | 7.69
2 | COc1cc(-c2noc(C)c2C#Cc2ccc(N)cc2)cc(OC)c1OC | > 25 µM (inactive) | > 25 | > 25 |  | > 25 | 8.23
3 | COc1ccc(C#Cc2ccc3c(c2)O[C@@H](CN(C)C(=O)Nc2cccc(OC)c2)[C@H](C)CN([C@@H](C)CO)S3(=O)=O)cc1 | > 25 µM (inactive) | > 25 | > 25 | 8.47 µM | 7.39 | 9.55
4 | N#CC1C=Cc2c(ccc3ccccc23)N1C(=O)c1ccccc1 (stereo not drawn) | > 25 µM (inactive) | > 25 | > 25 | > 25 µM (inactive) | > 25 | > 25
5 | CCn1c(SCC(=O)Nc2nc(-c3ccc(C)cc3)cs2)nnc1-c1ccccc1O |  | > 25 | > 25 | 1.68 µM | 1.65 | 1.71
6 | COC(=O)/C=C/c1ccccc1S(=O)(=O)N(Cc1ccccc1)Cc1ccco1 | > 25 µM (inactive) | > 25 | > 25 | > 25 µM (inactive) | > 25 | > 25
7 | C=C1c2nc3ccccc3n2C=C(c2ccc(C)cc2)N1c1ccccc1 | > 25 µM (inactive) | > 25 | > 25 | 16.5 µM (inactive) | 10.9 | 22.2
8 | CCCCCC(=O)Nc1nc(C)c(-c2csc(Nc3cc(OC)ccc3OC)n2)s1 | > 25 µM (inactive) | > 25 | > 25 | 14.6 µM | 13.3 | 15.8
9 | COc1ccc(OC)c(N(CCN2C(=O)c3ccccc3C2=O)C(=O)CCl)c1 | > 25 µM (inactive) | > 25 | > 25 | > 25 µM (inactive) | > 25 | > 25
10 | CC(C)c1ccc(Nc2ncc3c(n2)CCN(C(=O)Nc2ccc(F)c(Cl)c2)C3)cc1 |  | > 25 | > 25 | 4.65 µM | 2.95 | 6.36
11 | N#CC(C#N)=c1ccc2c(c1)N1C(c3ccccc3)=CC(c3ccccc3)C3CCCCC31N=2 (stereo not drawn) |  | > 25 | > 25 | 1.92 µM | 1.59 | 2.25
12 | Cc1nc(C(=O)Nc2ccccc2Cl)cc2c1[nH]c1ccccc12 |  | > 25 | > 25 | 3.06 µM | 2.87 | 3.24
13 | COc1cccc(/C=N/NC(=O)CSc2cccc3cccnc23)c1 | > 25 µM (inactive) | > 25 | > 25 | > 25 µM (inactive) | > 25 | > 25
14 | N/C(=N\c1nc2ccccc2o1)NC(=O)c1ccc(F)cc1 | > 25 µM (inactive) | > 25 | > 25 | > 25 µM (inactive) | > 25 | > 25
15 | CCOc1ccccc1NC(=O)c1cccc(NC(=O)c2ccco2)c1 | > 25 µM (inactive) | > 25 | > 25 |  | > 25 | 9.58
16 | Fc1cccc(Nc2nc(-c3ccncc3)nc3ccccc23)c1 | > 25 µM (inactive) | > 25 | > 25 | > 25 µM (inactive) | > 25 | > 25

Row | SMILES | IC50 cytotoxicity (DAPI nuclear signal decrease) (DAPI; mean of runs) | IC50 cytotoxicity (DAPI nuclear signal decrease) (DAPI; run 1) [µM] | IC50 cytotoxicity (DAPI nuclear signal decrease) (DAPI; run 2) [µM] | IC50 (TAG; mean of runs) | IC50 (TAG; run 1) [µM] | IC50 (TAG; run 2) [µM]
17 | COCCN(Cc1ccccc1)C(=O)C1CCN(C(=O)Nc2ccccc2)CC1 | > 25 µM (inactive) | > 25 | > 25 | > 25 µM (inactive) | > 25 | > 25
18 | Cc1ccc(/C=N/NC(=O)c2cc(-c3cccnc3)nc3ccccc23)cc1 | > 25 µM (inactive) | > 25 | > 25 | > 25 µM (inactive) | > 25 | > 25
19 | COc1ccc(NC(=O)C2(C)Cc3c(-c4ccc5c(c4)OCO5)ccnc3O2)cn1 (stereo not drawn) | > 25 µM (inactive) | > 25 | > 25 | > 25 µM (inactive) | > 25 | > 25
20 | CC(=O)c1cccc(-c2ccc(CN3C(CC(C)C)C(=O)N(Cc4cn(CC5CCCCC5)nn4)CCS3(=O)=O)cc2)c1 (stereo not drawn) | > 25 µM (inactive) | > 25 | > 25 |  | > 25 | 18.1
21 | Cc1ccc2c(c1)-c1c(cnn1CC(=O)Nc1ccccc1N1CCN(C)CC1)CO2 | > 25 µM (inactive) | > 25 | > 25 |  | 24.2 | > 25
22 | CNC(=S)NN=C(C)CCCC(C)=NNC(=S)NC |  | 11.3 | > 25 | > 25 µM (inactive) | > 25 | > 25
23 | N=c1n(CCO)c2ccccc2n1CCOc1ccc(Cl)cc1Cl | 22.3 µM (inactive) | 21.4 | 23.1 | > 25 µM (inactive) | > 25 | > 25
24 | COc1cc(OC)c2c(-c3ccccc3)cc(=O)oc2c1C(CCN1CCCCC1)c1ccc(N(C)C)cc1 (stereo not drawn) |  | 15.9 | > 25 |  | 9.65 | > 25
25 | CCOc1ccc(CCNC(=O)CN2CCN(Cc3ccccc3F)C2=O)cc1OCC |  | > 25 | > 25 | 3.01 µM | 2.44 | 3.57
26 | Cc1cccc2sc(NC(=O)C3CCCN(S(=O)(=O)c4cccc5nonc45)C3)nc12 (stereo not drawn) | > 25 µM (inactive) | > 25 | > 25 | 10.5 µM | 12.2 | 8.72
27 | Cc1cc(NC(=O)CSc2nc(-c3cccs3)nc3ccccc23)no1 | > 25 µM (inactive) | > 25 | > 25 | 17.5 µM (inactive) | 14.4 | 20.6
28 | CC(=O)c1ccc(Oc2cc(C)nc(-n3nc(C)cc3C)n2)cc1 | > 25 µM (inactive) | > 25 | > 25 | 11.5 µM | 10.4 | 12.5
29 | Nc1c(Cl)cc(-c2csc(N3CCCC3c3nc4cc(Cl)c(Cl)cc4n3CCCO)n2)cc1Cl (stereo not drawn) | > 25 µM (inactive) | > 25 | > 25 | 8.37 µM | 7.74 | 9
30 | O=[N+]([O-])c1ccc(Nc2nc(NC3CCCCC3)nc(N3CCCC3)n2)cc1 | > 25 µM (inactive) | > 25 | > 25 |  | > 25 | 11.1
31 | O=C1N[C@@H](Cc2ccccc2)COC(=O)[C@@H](Cc2ccc(F)cc2)CC/C=C/C[C@@H]1CC(=O)N(CCO)Cc1ccccc1 | > 25 µM (inactive) | > 25 | > 25 | 20.4 µM (inactive) | 18.5 | 22.3
